# According to patent US12440492B2, “Pharmaceutical compositions comprising AKT protein kinase inhibitors” (Genentech, Inc., priority 2016, dated 2025):
# Where a name gives a salt, the structure may show the parent alone.
# What was measured:
# Assay type in all cases: physicochemical
# [1] = Particle size distribution (d10, d50, d90) by laser diffraction
# Text: FIG. 6 illustrates particle size distribution of the material of Example 6C (Batch HQ00003) spray dried with two-feed nozzle as obtained by laser diffraction A bimodal particle size distribution is obvious. FIG. 9 illustrates particle size distribution of spray dried material with rotary wheel nozzle, i.e. of the material of batch BS1506SA03 of Example 13 (Table 20) obtained using a Malvern Mastersizer 2000 equipped with Hydro 2000S wet sample dispersion unit (Malvern Instruments Ltd, Malvern/UK). A monomodal particle size distribution is obvious. The terms “d50 value” (sometimes also referred to as “d(0.5)-value”) and “mass-median diameter” (or MMD) can be used interchangeably and denote the average particle size by mass, i.e. the average equivalent diameter of a particle, which is defined as the diameter where 50% (w) of the particles of the ensemble have a larger equivalent spherical diameter, and the other 50% (w) have a smaller equivalent spherical diameter. In analogy, the term “d10-value” denotes the particle diameter wherein 10% (w) of the particles of the ensemble have a smaller equivalent spherical diameter. In analogy, the term “d90-value” denotes the particle diameter wherein 90% (w) of the particles of the ensemble have a smaller equivalent spherical diameter.
# [2] = Solid state by X-ray powder diffraction; conditions: * indicates absence of crystalline API; for Solid state / Polymorphy (X-Ray, XRPD): monohydrochloride
# Text: Bragg's law describes the diffraction of crystalline material with the equation “2d·sin(theta)=n·lambda”, wherein “d” denotes perpendicular distance (in Angstroms) between pairs of adjacent planes in a crystal (“d-spacing”), “theta” denotes the Bragg angle, “lambda” denotes the wavelength and “n” is an integer. When Bragg's law is fulfilled, the reflected beams are in phase and interfere constructively so that Bragg diffraction peaks are observed in the X-ray diffraction pattern. At angles of incidence other than the Bragg angle, reflected beams are out of phase and destructive interference or cancellation occurs. […] The XRPD pattern of an amorphous material is further characterized by one or more amorphous halos.
# The term “XRPD” denotes the analytical method of X-Ray Powder Diffraction. The repeatability of the angular values is in the range of 2Theta±0.2°, more particularly in the range of 2Theta±0.1°. The term “approximately” given in combination with an angular value denotes the variance which is in the range of 2Theta±0.2°, particularly in the range of 2Theta±0.1°. The relative XRPD peak intensity is dependent upon many factors such as structure factor, temperature factor, crystallinity, polarization factor, multiplicity, and Lorentz factor. Relative intensities may vary considerably from one measurement to another due to preferred orientation effects. According to USP 941 (US Pharmacopoeia, 37th Edition, General Chapter 941), relative intensities between two samples of the same material may vary considerably due to “preferred orientation” effects. Anisotropic materials adopting preferred orientation will lead to anisotropic distribution of properties such as modulus, strength, ductility, toughness, electrical conductivity, thermal expansion, etc., as described e.g. in Kocks U. F. et al. (Texture and Anisotropy: Preferred Orientations in Polycrystals and Their Effect on Materials Properties, Cambridge University Press, 2000). In XRPD but also Raman spectroscopy, preferred orientations cause a change in the intensity distribution. Preferred orientation effects are particularly pronounced with crystalline APIs of relatively large particle size.
# Glass transition = conditions: monohydrochloride
# [3] = Solubility of ipatasertib
# Text: (§1) Whereas poor solubility is often a limiting factor in the development of galenical formulations of other API's (active pharmaceutical ingredient), a high solubility can equally be problematic for the process performance. Due to this very high intrinsic hygroscopicity of the API, ipatasertib drug substance tends to auto-dissolve to a honey-like viscous liquid at increased humidity. Such high solubility and hygroscopicity may pose serious problems for processing as well as for stability and shelf-life of the final product. Therefore, conventional pharmaceutical compositions comprising ipatasertib and processes for the manufacture of pharmaceutical compositions comprising wetting (e.g. wet granulation) are difficult due to the high solubility and high hygroscopicity of the API.
# [4] = Hygroscopicity of ipatasertib
# Text: as §1
# [5] = Bulk density, tapped density and Carr index; conditions: monohydrochloride
# [6] = Shear cell testing with Ring Shear Tester RST-XS; conditions: Pre-shear stress 1000 PA, 30 mL shear cell; monohydrochloride
# Text: Similar to the classification used by Jenike (Dietmar Schulze, Pulver und Schüttgüter, 2009 Springer Verlag Berlin/DE), one can define flow behaviour based on the flow function constant (ffc) as follows:
# The larger the flow function constant ffc, i.e., the smaller the ratio of the unconfined yield strength (σc) to the consolidation stress (σ1), the better a bulk solid's flow.
# [7] = Mechanical deformation behaviour (brittleness); conditions: more brittle than lactose
# Text: Mechanical compression during tableting of conventional pharmaceutical compositions comprising ipatasertib leads to exhausted compressibility, followed by elastic recovery of the tablet upon decompression. Therefore conventional pharmaceutical compositions comprising ipatasertib monohydrochloride are not suitable for direct compression due to lamination problems (crack formation during decompression) which are detectable as small cracks and fractures of the tablet core (e.g. using X-ray microtomography). Industrially required high-speed tableting processes may not be achievable.
# [8] = spray dried amorphous ipatasertib monohydrochloride powder
# [9] = spray-dried amorphous ipatasertib monohydrochloride, rotary wheel atomizer
Structure (SMILES),"Particle size d10 [1, 8] [μm]","Particle size d50 [1, 8] [μm]","Particle size d90 [1, 8] [μm]","Solid state / Polymorphy (X-Ray, XRPD) [2]",Glass Transition tg (Glass transition) [°C],Consolidation stress (σ1) [6] [PA],Flow Function Constant (ffc) [6],"Bulk density [5, 9] [gcm^−3]","Tapped density [5, 9] [gcm^−3]","Particle size d10 [1, 9] [μm]","Particle size d50 [1, 9] [μm]","Particle size d90 [1, 9] [μm]",Polymorphy (X-Ray) [2],other results
"CC(C)NC[C@@H](C(=O)N1CCN(c2ncnc3c2[C@H](C)C[C@H]3O)CC1)c1ccc(Cl)cc1 [6B′, ipatasertib monohydrochloride]",0.7,5.2,10.8,amorphous,132,,,,,,,,,
"CC(C)NC[C@@H](C(=O)N1CCN(c2ncnc3c2[C@H](C)C[C@H]3O)CC1)c1ccc(Cl)cc1 [ipatasertib, (S)-2-(4-chlorophenyl)-1-(4-((5R,7R)-7-hydroxy-5-methyl-6,7-dihydro-5H-cyclopenta[d]pyrimidin-4-yl)piperazin-1-yl)-3-(isopropylamino)propan-1-one]",,,,,,,,,,,,,,solubility ([3]; water): > 1 g/g; solubility ([3]; water/ethanol 1:1): > 2 g/g; hygroscopicity ([4]; at 50% RH): ~6%; hygroscopicity ([4]; at 95% RH): > 35%
"CC(C)NC[C@@H](C(=O)N1CCN(c2ncnc3c2[C@H](C)C[C@H]3O)CC1)c1ccc(Cl)cc1 [6A′, ipatasertib monohydrochloride]",0.7,3.8,7.5,amorphous,131,,,,,,,,,
"CC(C)NC[C@@H](C(=O)N1CCN(c2ncnc3c2[C@H](C)C[C@H]3O)CC1)c1ccc(Cl)cc1 [BS1506SA04, ipatasertib monohydrochloride]",,,,,,1707,3.2,0.40,0.56,11,30,62,amorphous*,
"CC(C)NC[C@@H](C(=O)N1CCN(c2ncnc3c2[C@H](C)C[C@H]3O)CC1)c1ccc(Cl)cc1 [BS1506SA02, ipatasertib monohydrochloride]",,,,,,1701,3.5,0.40,0.52,11,31,64,amorphous*,
"CC(C)NC[C@@H](C(=O)N1CCN(c2ncnc3c2[C@H](C)C[C@H]3O)CC1)c1ccc(Cl)cc1 [ipatasertib monohydrochloride, (S)-2-(4-chlorophenyl)-1-(4-((5R,7R)-7-hydroxy-5-methyl-6,7-dihydro-5H-cyclopenta[d]pyrimidin-4-yl)piperazin-1-yl)-3-(isopropylamino)propan-1-one as monohydrochloride salt]",,,,,,,,,,,,,,brittle deformation characteristics relative to lactose [7]: 3 ×

# Second part, led by results:
"Particle size d10 [1, 8] [μm]","Particle size d50 [1, 8] [μm]","Particle size d90 [1, 8] [μm]","Solid state / Polymorphy (X-Ray, XRPD) [2]",Glass Transition tg (Glass transition) [°C],Consolidation stress (σ1) [6] [PA],Flow Function Constant (ffc) [6],"Bulk density [5, 9] [gcm^−3]","Tapped density [5, 9] [gcm^−3]","Particle size d10 [1, 9] [μm]","Particle size d50 [1, 9] [μm]","Particle size d90 [1, 9] [μm]",Polymorphy (X-Ray) [2],Structure (SMILES),other results
11,33,67,amorph.*,,1729,3.5,,,,,,,"CC(C)NC[C@@H](C(=O)N1CCN(c2ncnc3c2[C@H](C)C[C@H]3O)CC1)c1ccc(Cl)cc1 [Composition 140910419, ipatasertib monohydrochloride]","Bulk density [5, 8]: 0.44 gcm^−3; Tapped density [5, 8]: 0.58 gcm^−3"
,,,,,1668,3.5,0.41,0.57,13,33,65,amorphous*,"CC(C)NC[C@@H](C(=O)N1CCN(c2ncnc3c2[C@H](C)C[C@H]3O)CC1)c1ccc(Cl)cc1 [BS1506SA05, ipatasertib monohydrochloride]",
0.7,4.3,,amorphous,131,,,,,,,,,"CC(C)NC[C@@H](C(=O)N1CCN(c2ncnc3c2[C@H](C)C[C@H]3O)CC1)c1ccc(Cl)cc1 [Example 6C, ipatasertib monohydrochloride]","particle size distribution shape ([1]; laser diffraction, monohydrochloride): bimodal"
10,27,52,amorph.*,,1731,2.8,,,,,,,"CC(C)NC[C@@H](C(=O)N1CCN(c2ncnc3c2[C@H](C)C[C@H]3O)CC1)c1ccc(Cl)cc1 [Composition 140910416, ipatasertib monohydrochloride]","Bulk density [5, 8]: 0.40 gcm^−3; Tapped density [5, 8]: 0.55 gcm^−3"
